Where “and” joins values, the source holds several entries; their conditions need not be identical. Equal entries are not always repeated.
Columns and labels:
[1] = Molar enthalpy of transition or fusion; conditions: DSC
[2] = for vapor or sublimation pressure: Liquid, Rate of evaporation; for Normal melting temperature: DTA
[3] = molar heat capacity at constant pressure; conditions: 101.33 kPa, Small sample (50 mg) DSC

C1COCCOCCOCCOCCOCCO1 [1,4,7,10,13,16-hexaoxacyclooctadecane]
Conditions	Molar enthalpy of transition or fusion [kcal/mol]	Normal melting temperature [°C]	vapor or sublimation pressure
[1], Crystal	9.56	–	–
[2], 430 K	–	–	0.3102 kPa and 0.3376 kPa and 0.3358 kPa
[2], 435 K	–	–	0.4315 kPa and 0.4219 kPa and 0.4305 kPa
[2], 440 K	–	–	0.5414 kPa and 0.5488 kPa and 0.5487 kPa
[2], 445 K	–	–	0.6904 kPa and 0.6934 kPa and 0.6846 kPa
[2], 450 K	–	–	0.858 kPa and 0.8682 kPa and 0.8441 kPa
[2], 455 K	–	–	1.063 kPa and 1.052 kPa
[2], 460 K	–	–	1.315 kPa and 1.31 kPa and 1.317 kPa
[2], 465 K	–	–	1.616 kPa and 1.619 kPa and 1.602 kPa
[2], 470 K	–	–	1.972 kPa and 1.959 kPa and 1.967 kPa
[2], 475 K	–	–	2.394 kPa and 2.387 kPa and 2.399 kPa
[2], 480 K	–	–	2.879 kPa and 2.853 kPa and 2.858 kPa
[2], Crystal	–	39.17	–

[3]
Conditions	molar heat capacity at constant pressure [J/K/mol]
290 K, Crystal	380.3
291 K, Crystal	388.3
292 K, Crystal	394.8
293 K, Crystal	401.7
294 K, Crystal	409.8
295 K, Crystal	418.9
296 K, Crystal	428.4
297 K, Crystal	440.7
298 K, Crystal	457
298.15 K, Crystal	460
299 K, Crystal	479.4
315 K, Liquid	515
320 K, Liquid	516.5
325 K, Liquid	518.7
330 K, Liquid	521.5
335 K, Liquid	522.8
340 K, Liquid	524.9
345 K, Liquid	526.3
350 K, Liquid	527.8
355 K, Liquid	528.8
410 K, Liquid	562.4
415 K, Liquid	567.4
420 K, Liquid	573.6
425 K, Liquid	578.6
430 K, Liquid	582.6
435 K, Liquid	587.1
440 K, Liquid	590.4
445 K, Liquid	595.2
450 K, Liquid	599.4
455 K, Liquid	603
460 K, Liquid	607.7
465 K, Liquid	612.5
470 K, Liquid	617.4
475 K, Liquid	621.3
480 K, Liquid	626.4
485 K, Liquid	630.9
490 K, Liquid	635.9

[Al+3].[Al+3].[O-2].[O-2].[O-2] [aluminum oxide (Al2O3)]
[3], Crystal
Conditions	molar heat capacity at constant pressure [J/K/mol]
298.15 K	78.8
350 K	88.2
450 K	101.33

c1ccc2cc3ccccc3cc2c1 [anthracene]
[2]
Conditions	vapor or sublimation pressure [kPa]
494 K	5.794
496 K	6.242
498 K	6.713
500 K	7.174
502 K	7.662
504 K	8.173
506 K	8.694
508 K	9.227
510 K	9.775
512 K	10.31

c1ccc2c(c1)OCCOCCOCCOc1ccccc1OCCOCCOCCO2 [dibenzo-24-crown-8]
Conditions	Molar enthalpy of transition or fusion [kcal/mol]	Normal melting temperature [°C]	Triple point temperature [K]	vapor or sublimation pressure
[1], Crystal 1	12.8	–	–	–
[1], Crystal 2	0.234	–	–	–
[2], 545 K	–	–	–	0.114 kPa and 0.1131 kPa and 0.1132 kPa
[2], 550 K	–	–	–	0.1434 kPa and 0.1414 kPa and 0.1402 kPa
[2], 555 K	–	–	–	0.1736 kPa and 0.1757 kPa and 0.1786 kPa
[2], 560 K	–	–	–	0.2155 kPa and 0.2204 kPa and 0.2198 kPa
[2], 565 K	–	–	–	0.2674 kPa and 0.2714 kPa and 0.2733 kPa
[2], 570 K	–	–	–	0.3406 kPa and 0.3372 kPa and 0.3358 kPa
[2], 575 K	–	–	–	0.4082 kPa and 0.4133 kPa and 0.4103 kPa
[2], 580 K	–	–	–	0.4998 kPa and 0.5082 kPa and 0.5036 kPa
[2], 585 K	–	–	–	0.607 kPa and 0.6171 kPa and 0.6145 kPa
[2], 590 K	–	–	–	0.7381 kPa and 0.7487 kPa and 0.7461 kPa
[2], 595 K	–	–	–	0.9028 kPa and 0.897 kPa and 0.9062 kPa
[2], Crystal 1	–	100.72	–	–
[2], Crystal 2, DSC	–	–	346.32	–

[3]
Conditions	molar heat capacity at constant pressure [J/K/mol]
295 K, Crystal 2	602
298.15 K, Crystal 2	611.3
300 K, Crystal 2	615.7
305 K, Crystal 2	627.3
310 K, Crystal 2	638.8
315 K, Crystal 2	648
320 K, Crystal 2	658.1
325 K, Crystal 2	668.9
330 K, Crystal 2	681.3
335 K, Crystal 2	692.8
340 K, Crystal 2	706.2
355 K, Crystal 1	755.6
360 K, Crystal 1	771.8
365 K, Crystal 1	802
380 K, Liquid	921.2
385 K, Liquid	922.5
390 K, Liquid	927.3
395 K, Liquid	930.4
400 K, Liquid	934.6
405 K, Liquid	938.7
410 K, Liquid	943.5
415 K, Liquid	947.5
420 K, Liquid	956.1
425 K, Liquid	962.6
430 K, Liquid	968.4
435 K, Liquid	974.4
440 K, Liquid	979
445 K, Liquid	985.6
450 K, Liquid	990.7
455 K, Liquid	996.8
460 K, Liquid	1003.2
465 K, Liquid	1009.9
470 K, Liquid	1016.5
475 K, Liquid	1020.4
480 K, Liquid	1025.3
485 K, Liquid	1030.6
490 K, Liquid	1036.3

— the NIST ThermoML archive (doi:10.1016/j.tca.2016.03.013)
